From ChEMBL document CHEMBL3627674, “Discovery of wrightiadione as a novel template for the TrkA kinase inhibitors” (Bioorg Med Chem Lett, 2015)

Each compound was assayed against High affinity nerve growth factor receptor (Homo sapiens, UniProt P04629) (assay: Inhibition of TrkA (unknown origin) by radiometric analysis in presence of [gamma-33P]-ATP).
Chain of High affinity nerve growth factor receptor (P04629 whole entry): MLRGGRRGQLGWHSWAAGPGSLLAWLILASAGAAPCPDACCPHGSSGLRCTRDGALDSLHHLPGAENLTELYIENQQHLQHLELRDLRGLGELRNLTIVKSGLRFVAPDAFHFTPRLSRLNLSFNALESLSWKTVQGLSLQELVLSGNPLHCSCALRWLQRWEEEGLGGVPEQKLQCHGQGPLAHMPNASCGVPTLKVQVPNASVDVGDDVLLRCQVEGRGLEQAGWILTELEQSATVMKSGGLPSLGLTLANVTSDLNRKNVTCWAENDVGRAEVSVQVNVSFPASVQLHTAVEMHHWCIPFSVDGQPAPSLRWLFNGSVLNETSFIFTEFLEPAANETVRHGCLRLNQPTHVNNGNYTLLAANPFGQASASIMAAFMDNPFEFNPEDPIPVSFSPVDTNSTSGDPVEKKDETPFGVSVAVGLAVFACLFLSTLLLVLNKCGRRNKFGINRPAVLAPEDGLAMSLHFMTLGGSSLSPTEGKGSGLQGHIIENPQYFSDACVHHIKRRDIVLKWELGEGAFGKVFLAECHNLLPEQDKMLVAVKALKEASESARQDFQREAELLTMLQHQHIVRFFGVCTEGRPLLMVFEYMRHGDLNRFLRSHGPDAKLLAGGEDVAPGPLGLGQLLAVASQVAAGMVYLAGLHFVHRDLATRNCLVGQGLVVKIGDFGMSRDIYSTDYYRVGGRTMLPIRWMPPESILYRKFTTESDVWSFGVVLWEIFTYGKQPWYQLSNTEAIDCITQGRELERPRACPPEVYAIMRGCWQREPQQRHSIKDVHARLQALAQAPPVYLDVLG

Structure (SMILES)	IC50
O=C1c2ccccc2-c2c1n(Cc1ccccc1)c1ccccc1c2=O	10.3 µM
Cc1cccc2c1C(=O)c1c-2c(=O)c2ccccc2n1C	73.3 µM
Cn1c2c(c(=O)c3ccccc31)-c1ccccc1C2=O	28.9 µM
COc1ccc2c(c1)C(=O)c1c-2c(=O)c2ccccc2n1C	6.6 µM
COc1cccc2c1-c1c(n(C)c3ccccc3c1=O)C2=O	209 µM
CCOC(=O)n1c2c(c(=O)c3ccccc31)-c1ccccc1C2=O	16.5 µM
Cn1c2c(c(=O)c3ccc(Cl)cc31)-c1ccccc1C2=O	88.5 µM
COc1ccc2c(c1)C(=O)c1c-2c(=O)c2ccccc2n1Cc1ccccc1	16.4 µM
Cn1c2c(c(=O)c3ccc(C(F)(F)F)cc31)-c1ccccc1C2=O	117 µM
Cn1c2c(c(=O)c3ccccc31)-c1cccc(O)c1C2=O	141 µM
COc1ccc2c(c1)-c1c(n(C)c3ccccc3c1=O)C2=O	14.4 µM
Cc1ccc2c(c1)C(=O)c1c-2c(=O)c2ccccc2n1C	47.2 µM

These compounds were tested against Serine/threonine-protein kinase PLK3 (Homo sapiens, UniProt Q9H4B4) (assay: Inhibition of PLK3 (unknown origin) by radiometric analysis in presence of [gamma-33P]-ATP).
Chain of Serine/threonine-protein kinase PLK3 (Q9H4B4 whole entry): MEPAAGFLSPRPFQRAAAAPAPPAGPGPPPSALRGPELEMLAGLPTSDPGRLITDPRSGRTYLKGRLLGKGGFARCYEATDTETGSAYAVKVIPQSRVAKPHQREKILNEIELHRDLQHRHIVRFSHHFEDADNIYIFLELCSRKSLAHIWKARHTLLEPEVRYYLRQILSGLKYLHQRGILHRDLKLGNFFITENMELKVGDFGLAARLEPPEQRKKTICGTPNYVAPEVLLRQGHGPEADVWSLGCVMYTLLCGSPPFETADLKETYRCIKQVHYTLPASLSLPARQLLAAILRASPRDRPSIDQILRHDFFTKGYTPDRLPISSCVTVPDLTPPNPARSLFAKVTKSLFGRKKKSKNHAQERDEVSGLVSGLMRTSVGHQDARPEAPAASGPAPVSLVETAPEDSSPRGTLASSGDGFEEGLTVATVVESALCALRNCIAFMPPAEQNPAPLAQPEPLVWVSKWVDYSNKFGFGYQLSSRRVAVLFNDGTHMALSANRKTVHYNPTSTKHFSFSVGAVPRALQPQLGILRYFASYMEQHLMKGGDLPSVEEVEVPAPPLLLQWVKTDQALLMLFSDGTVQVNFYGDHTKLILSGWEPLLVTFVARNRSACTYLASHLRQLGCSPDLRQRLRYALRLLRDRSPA

Structure (SMILES)	IC50
Cn1c2c(c(=O)c3ccccc31)-c1ccccc1C2=O	> 200 µM
